Measurements taken from US5811073A, “Method for radioisotopic detection and localization of inflammation in a host” (President and Fellows of Harvard College, priority 1995, dated 1998).

Experiments:
[1] = tested on: bacterial (E. coli) inflammatory lesions (pus capsule); experiment: Gamma camera imaging of rats with bacterial infection; format: in vivo; parameters: key to Figure of Merit (FOM), equation (1): FOM=(At-Ab)^2/(At+Ab), from total counts target vs background; conditions: for Figure of Merit (FOM), equation (1): 0.2 mCi ^67 Ga-citrate (n=3); for Figure of Merit (FOM), equation (1) / Pus Capsule to Contralateral Tissue (T/B) Ratio, gamma camera imaging: 1.5 mCi/rat ^123 IUdR (n=4); for Figure of Merit (FOM), equation (1) / Pus Capsule to Contralateral Tissue (T/B) Ratio, gamma camera imaging / Figure of Merit (FOM), equation (2): mean ± SD; for Pus Capsule to Contralateral Tissue (T/B) Ratio, gamma camera imaging: 0.2 mCi/rat ^67 Ga (n=3); for Figure of Merit (FOM), equation (2): n=3 (^67 Ga), n=4 (^123 IUdR)
Procedure: (§1) A frozen sample of E. coli bacteria (clinical isolate; ATCC 9339) was used to inoculate a 10 ml trypticase soy medium (trypticase soy broth, BBL #11768, 30 g/L water), and the tube was incubated overnight at […] This culture was used to grow single colonies by streaking the sample on agar plates (100 mm petri dishes each containing 15 ml of […] in the same medium). Good colonies develop in 10-11 hours at 37° C. The agar plates containing bacterial colonies were stored upside down at 4° C. A single colony of bacteria from the agar plate was used to inoculate 10 ml trypticase soy medium, and the tube was incubated overnight at 37° C. with vigorous shaking. Two ml of this overnight culture was transferred into 100 ml trypticase soy medium and the sample incubated at 37° C. with vigorous shaking until the culture reached an OD600 of ~0.8 (in about 2 hrs). This 100 ml culture contained ~6.4×10^10 bacterial cells (1 OD600 =8×10^8 cells/ml).
(§2) The culture was centrifuged at 5500 rpm for 5 min at 4° C. in a Sorvall SS-34 rotor, the bacterial pellet resuspended in saline to give ~2.5×10^9 bacteria/ml, and 0.1 ml of resuspended cells injected into the left thigh muscle of each anesthetized rat.
(§3) A further set of rats prepared as described in Examples 1 and 2 received intravenous injections of either ^123 IUdR (at a dose of about 1.5 mCi/rat) or gallium-67 citrate (at a dose of about 0.2 mCi/rat). After 1, 3 and 24 hours, rats from each group were anesthetized and imaged using a gamma camera (the General Electric STARCAM™ 400 fitted with parallel hole medium collimator). Anterior images were obtained 10^6 counts/frame except for the 24 h period for ^123 IUdR where a 15 min scan was carried out. A 20% window was present over the 159 keV photopeaks of ^67 Ga (93 kev, 184 keV, and 298 keV).
(§4) Regions of interest (ROI) were drawn over the inflamed areas (3×4 pixel) and over the contralateral area in each rat. Total counts in these regions were used to calculate Target to Background (T/B) ratios and to calculate Figure of Merit (FOM; statistical significance) values using either of the following equations:
(§5) FOM=(At -Ab)^2 /(At +Ab) (1)
(§6) At =counts in ROI (3×4) over pus capsule; and
(§7) Ab =counts in ROI (3×4) over contralateral muscle.
(§8) Equation (1) is derived from the Report of the National Council on Radiation Protection and Measurements, Nuclear Medicine, "Factors Influencing the Choice and Use of Radionuclides in Diagnosis and Therapy", Report No. 70, p.79 (NRCP, Bethesda, Md., 1982). Equation (2) is derived from Rubin et al., J. Nucl. Med. 30:385-389, 1989. For purposes of reference, the disclosures of each of these publications is incorporated herein.

[2] = tested on: sterile inflammatory lesions (pus capsule; turpentine oil); experiment: Gamma camera imaging of rats with sterile inflammation; format: in vivo, Male Sprague-Dawley rats; conditions: for Figure of Merit (FOM), equation (1): 0.2 mCi ^67 Ga-citrate; for Figure of Merit (FOM), equation (1) / Pus Capsule to Contralateral Tissue (T/B) Ratio, gamma camera imaging: 1.5 mCi/rat ^123 IUdR; for Figure of Merit (FOM), equation (1) / Pus Capsule to Contralateral Tissue (T/B) Ratio, gamma camera imaging / Figure of Merit (FOM), equation (2): n=4, mean ± SD; for Pus Capsule to Contralateral Tissue (T/B) Ratio, gamma camera imaging: 0.2 mCi/rat ^67 Ga
Procedure: Male Sprague-Dawley rats weighing between 150-200g were obtained from the Charles River Breeding Laboratories in Burlington, Mass. […] To anaesthetize the animals during testing, ketamine (40 mg/kg) and xylazine (10 mg/kg) were administered intra peritoneally (1.0 ml/kg) prior to surgical procedures. For the imaging studies, each animal received 1.5 ml/kg of a mixture of ketamine (75 mg/kg), xylazine (39 mg/kg) and acepromazine (0.75 mg/kg).
To induce a localized sterile inflammation, 0.1 ml of turpentine oil (Rectified Turpentine Oil for medical use, Gentry Corporation, Fair Lawn, N.J.) was injected into the left thigh muscle of anesthetized rats.
as §3, §4, §5, §6, §7, §8

[3] = tested on: sterile inflammatory lesions (pus capsule; turpentine oil); experiment: Biodistribution (pus capsule to contralateral tissue ratio) in rats with sterile inflammation
[4] = tested on: bacterial (E. coli) inflammatory lesions (pus capsule); experiment: Biodistribution (pus capsule to contralateral tissue ratio) in rats with bacterial infection; format: in vivo
Procedure: as §1, §2
No-carrier added radioiodinated deoxyuridine (^125 IUdR) was synthesized by the method described in the above disclosure. Commercially available gallium-67 citrate of known biodistribution characteristics was obtained, for comparison to ^125 IUdR. 24 hrs after each rat described in Example 2 received an intramuscular injection of E. coli or after each rat described in Example 1 received an intramuscular injection of turpentine oil (to permit comparison of activity in a bacterial inflammation lesions to activity in a sterile inflammation lesions) in the left rear thigh, each rat received either ^125 IUdR (about 5 μCi/rat) or gallium-67 citrate (about 10 μCi/rat) suspended in 0.1 ml saline, by injection into the tail vein.
At one, three and 24 hrs after ^125 IUdR or gallium-67 citrate administration, the animals from each group were anesthetized, blood collected via cardiac puncture, urine aspirated from the urinary bladder, and the rats humanely sacrificed. The biodistribution of each radiopharmaceutical (measured as a function of the % injected dose/gram body weight) was then determined in various normal tissues and organs, as well as the left and right legs, the pus capsule formed within the leg and in contralateral muscle tissues (i.e., background tissues unaffected by inflammation) of equivalent weight.
To determine the distribution of each radiopharmaceutical in various tissues of each rat (i.e., the "biodistribution" of each radiopharmaceutical), samples of background tissues and organs (blood, lung, liver, spleen, kidney, muscle and intestine), of target tissue (the pus capsule formed in the leg) and of contralateral muscle tissue (background tissue adjacent to target tissue) were obtained from each rat and weighed. Radioactivity in each sample was measured in a well-type gamma counter (from LKB, Wallac Oy, Finland). To correct for radioactive decay and permit calculation of activity in each organ or tissue as a fraction of the injected dosage of radiopharmaceutical, aliquots of the injected doses were counted at the same time that radioactivity in each sample was determined. The results were measured as a function of the percentage of injected dose/gram (% ID/g). For further reference regarding measurements of biodistribution of radiopharmaceuticals, particularly in blood, those of ordinary skill in the art may wish to refer to Baker et al., "The Laboratory Rat" (Acad.Press N.Y., 1980).
Ab = %ID/g over contralateral muscle

For O=c1[nH]c(=O)n([C@H]2C[C@H](O)[C@@H](CO)O2)cc1[123I] [^123 IUdR], the “detection of the lesion in scintigraphic images (in words)” value ([1]; 1, 3, and 24 h, i.v.) was “can clearly detect the lesion”, the “radioscintigraphic detection by FOM, comparison of agents (in words)” value ([1]; 1 h, 3 hrs, and 24 hrs) was “superior agent” and the “radioscintigraphic detection by imaging T/B ratio, comparison of agents (in words)” value ([1]; 1 h, 3 hrs, and 24 hrs) was “superior to gallium-67”. For the same compound, the “Figure of Merit (FOM), equation (1)” value ([1]; 1 h, i.v.) was 1770 ± 598, the “Pus Capsule to Contralateral Tissue (T/B) Ratio, gamma camera imaging” value (shortened to “Pus Capsule … (T/B) Ratio, gamma camera imaging”) ([1]; 1 h, i.v.) was 3.72 ± 1.06 and the “Figure of Merit (FOM), equation (2)” value ([1]; 1 h, i.v.) was 2.72 ± 0.53. For the same compound, the “Figure of Merit (FOM), equation (1)” value ([1]; 3 h, i.v.) was 1507 ± 775, the “Pus Capsule … (T/B) Ratio, gamma camera imaging” value ([1]; 3 h, i.v.) was 3.53 ± 0.80 and the “Figure of Merit (FOM), equation (2)” value ([1]; 3 h, i.v.) was 2.53 ± 0.40. The “Figure of Merit (FOM), equation (1)” value ([1]; 24 h, i.v.) was 214 + 135, the “Pus Capsule … (T/B) Ratio, gamma camera imaging” value ([1]; 24 h, i.v.) was 5.35 ± 2.37 and the “Figure of Merit (FOM), equation (2)” value ([1]; 24 h, i.v.) was 4.35 ± 1.19. For the same compound, the “detection of the lesion in scintigraphic images (in words)” value ([2]; 1, 3, and 24 h, i.v.) was “can clearly detect the lesion”, the “Figure of Merit (FOM), equation (1)” value ([2]; 1 h, i.v.) was 14444 ± 559 and the “Pus Capsule … (T/B) Ratio, gamma camera imaging” value ([2]; 1 h, i.v.) was 4.13 ± 1.06. The “Figure of Merit (FOM), equation (2)” value ([2]; 1 h, i.v.) was 3.13 ± 0.53, the “Figure of Merit (FOM), equation (1)” value ([2]; 3 h, i.v.) was 750 + 268 and the “Pus Capsule … (T/B) Ratio, gamma camera imaging” value ([2]; 3 h, i.v.) was 3.33 ± 0.92. The “Figure of Merit (FOM), equation (2)” value ([2]; 3 h, i.v.) was 2.33 ± 0.46, the “efficacy by imaging T/B ratio, comparison of agents (in words)” value ([2]; 3 hrs) was “equal” and the “Figure of Merit (FOM), equation (1)” value ([2]; 24 h, i.v.) was 69 + 52. For the same compound, the “Pus Capsule … (T/B) Ratio, gamma camera imaging” value ([2]; 24 h, i.v.) was 3.07 ± 0.930, the “Figure of Merit (FOM), equation (2)” value ([2]; 24 h, i.v.) was 2.07 ± 1.46 and the “accumulation in target tissues, rate vs gallium-67 citrate (in words)” value ([2]; FIGS. 4 and 8 vs FIGS. 3 and 7) was “more quickly than did gallium-67 citrate”. The “radioscintigraphic detection by FOM, comparison of agents (in words)” value ([2]; early (i.e., 1 h)) was “superior agent” and the “radioscintigraphic detection by imaging T/B ratio, comparison of agents (in words)” value ([2]; early (i.e., 1 h)) was “superior to gallium-67”.
For O=c1[nH]c(=O)n([C@H]2C[C@H](O)[C@@H](CO)O2)cc1[125I] [^125 IUdR], the “concentration within lesion (pus capsule) vs contralateral tissues (in words)” value ([3]; sterile inflammation (turpentine oil)) was “to a greater extent than in the contralateral tissues”, the “radioscintigraphic detection by biodistribution T/B ratios, compared with ^67 Ga (in words)” value ([3]; sterile inflammation, 3 h and 24 h) was “much better than ^67 Ga” and the “radioscintigraphic detection by biodistribution T/B ratios, compared with ^67 Ga (in words)” value ([4]; bacterial infection, 1 h, 3 h, and 24 h) was “better”. The “concentration within lesion (pus capsule) vs contralateral tissues (in words)” value ([4]; rat, in vivo) was “to a greater extent than in the contralateral tissues” and the “time of accumulation in target (inflamed) tissues” value ([4]; rat, in vivo) was at most 1 h.
